PubChem BioAssay (NCI)
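Method: 48-hour compound exposure of cells in 96-well plates, five concentrations, linear interpolation of endpoints. TGI: total growth inhibition.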

Legend:
Assay in all cases: growth of human tumour cells (NCI), 48 h
[1] = system: 786-0 renal
[2] = system: A498 renal
[3] = system: A549 NSCLC
[4] = system: ACHN renal
[5] = system: CAKI-1 renal
[6] = system: CCRF-CEM leukemia
[7] = system: COLO 205 colon
[8] = system: DU-145 prostate
[9] = system: EKVX NSCLC
[10] = system: HCC-2998 colon
[11] = system: HCT-116 colon
[12] = system: HCT-15 colon
[13] = system: HL-60(TB) leukemia
[14] = system: HOP-62 NSCLC
[15] = system: HOP-92 NSCLC
[16] = system: HS 578T breast
[17] = system: HT29 colon
[18] = system: IGROV1 ovarian
[19] = system: K-562 leukemia
[20] = system: KM12 colon
[21] = system: LOX IMVI melanoma
[22] = system: M14 melanoma
[23] = system: MALME-3M melanoma
[24] = system: MCF7 breast
[25] = system: MDA-MB-231 breast
[26] = system: MDA-MB-435
[27] = system: MDA-N
[28] = system: MOLT-4 leukemia
[29] = system: NCI-H226 lung
[30] = system: NCI-H23 lung
[31] = system: NCI-H460 lung
[32] = system: NCI-H522 lung
[33] = system: NCI/ADR-RES ovarian
[34] = system: OVCAR-3 ovarian
[35] = system: OVCAR-4 ovarian
[36] = system: OVCAR-5 ovarian
[37] = system: OVCAR-8 ovarian
[38] = system: PC-3 prostate
[39] = system: RPMI-8226 leukemia
[40] = system: RXF 393 renal
[41] = system: SF-268 CNS
[42] = system: SF-295 CNS
[43] = system: SF-539 CNS
[44] = system: SK-MEL-2 melanoma
[45] = system: SK-MEL-28 melanoma
[46] = system: SK-MEL-5 melanoma
[47] = system: SK-OV-3 ovarian
[48] = system: SN12C renal
[49] = system: SNB-19 CNS
[50] = system: SNB-75 CNS
[51] = system: SR leukemia
[52] = system: SW-620 colon
[53] = system: T-47D breast
[54] = system: TK-10 renal
[55] = system: U251 CNS
[56] = system: UACC-257 melanoma
[57] = system: UACC-62 melanoma
[58] = system: UO-31 renal

Measured: TGI

CCOC(=O)Cn1c(=O)c2nc(SC)sc2n(-c2ccc(C)cc2)c1=S
> 75 µM: [43]
71.6 µM: [55]
68.1 µM: [15]
> 92 µM: [23]
61.1 µM: [40]
44.2 µM: [50]
42.5 µM: [14]
49.1 µM: [1]
> 89.5 µM: [30]
96.8 µM: [44]
69.6 µM: [29]
> 66.5 µM: [16]
54.1 µM: [49]
> 89.8 µM: [54]
> 89.2 µM: [41]
35.2 µM: [35]
> 100 µM: all other assays above
